# Measured values published in PubChem BioAssay (NCI).
# Several values for one entry are separate records, joined by “and”; a condition that tells them apart may be missing. Equal entries are not always repeated.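 Five compound concentrations were applied to cells in 96-well plates for 48 hours; endpoints were derived by simple linear interpolation of the resulting dose-response curve. Abbreviation: GI50, concentration required for 50% inhibition of growth. TGI: concentration producing complete growth inhibition.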
# Key:
# Test in all cases: growth of human tumour cells (NCI), 48 h
# [1] = tested on: UACC-62 melanoma
# [2] = tested on: NCI-H226 lung
# [3] = tested on: SK-MEL-28 melanoma
# [4] = tested on: SR leukemia
# [5] = tested on: LOX IMVI melanoma
# [6] = tested on: IGROV1 ovarian
# [7] = tested on: SF-295 CNS
# [8] = tested on: OVCAR-8 ovarian
# [9] = tested on: HCT-116 colon
# [10] = tested on: K-562 leukemia
SMILES,GI50 [1],TGI [1],GI50 [2],TGI [2],GI50 [3],TGI [3],GI50 [4],TGI [4],GI50 [5],TGI [5],GI50 [6],TGI [6],GI50 [7],TGI [7],GI50 [8],TGI [8],GI50 [9],TGI [9],GI50 [10] [µM],TGI [10] [µM]
CN(C)c1ccc(/C=N/NC(=O)c2cccc3ccccc23)c(Cl)c1,0.978 µM,> 100 µM,12.3 µM,> 100 µM,3.5 µM,> 100 µM,0.36 µM,> 100 µM,1.86 µM,> 100 µM,3.44 µM,> 100 µM,0.588 µM,9.96 µM,3.29 µM,> 100 µM,0.559 µM,> 100 µM,0.398,> 100
FC(F)(F)c1[nH]ncc1-c1nc2ccc3[nH]ncc3c2c2c1CCCC2,1.02 µM,2.83 µM,2.26 µM,12.4 µM,1.41 µM,4.86 µM,0.356 µM,2.73 µM,1.09 µM,2.6 µM,0.942 µM,5 µM,1.69 µM,8.52 µM,2.63 µM,11.9 µM,0.523 µM,10.6 µM,2.71,60.5
Cc1cc2c(=O)[nH]c(N)nc2nc1C,,> 100 µM,,> 100 µM,,> 100 µM,,> 100 µM,,> 100 µM,,> 100 µM,,> 100 µM,,> 100 µM,,> 100 µM,,> 100
O=S(=O)(NCCO)c1cc[c]([Sb](=[O])([OH])[OH])cc1,> 100 µM,> 100 µM,> 100 µM,> 100 µM,> 100 µM,> 100 µM,> 100 µM,> 100 µM,> 100 µM,> 100 µM,> 100 µM,> 100 µM,> 100 µM,> 100 µM,> 100 µM,> 100 µM,> 100 µM,> 100 µM,> 100,> 100
CCOC(=O)c1nc2cc(C(F)(F)F)ccc2[n+]([O-])c1C,> 100 µM,> 100 µM,> 100 µM,> 100 µM,> 100 µM,> 100 µM,> 100 µM,> 100 µM,> 100 µM,> 100 µM,> 100 µM,> 100 µM,> 100 µM,> 100 µM,> 100 µM,> 100 µM,> 100 µM,> 100 µM,> 100,> 100
O=C(c1ccccc1O)c1[nH]c(Cl)c(Cl)c1-n1c(C(=O)c2ccccc2O)cc(Cl)c1Cl,0.495 µM and 0.361 µM,3.34 µM and 2.09 µM,1.63 µM and 0.706 µM,14.9 µM and 5.97 µM,0.844 µM and 0.529 µM,12.3 µM and 11.3 µM,2.76 µM and 0.446 µM,15.2 µM and 15.1 µM,2.72 µM and 2.48 µM,10.6 µM and 10.7 µM,1.54 µM and 1.45 µM,20.5 µM and 15.1 µM,1.05 µM and 0.792 µM,4.16 µM and 3.38 µM,0.643 µM and 0.558 µM,10.9 µM and 15.8 µM,0.336 µM and 0.344 µM,4.76 µM and 10.4 µM,0.409,16.8
